The source of these data is PMC8881573, “Inhibition of SRP-dependent protein secretion by the bacterial alarmone (p)ppGpp” (Nature Communications, 2022).

Assay [1] addresses T1, (Ec)Ffh-NG (Escherichia coli, UniProt P0AGD7).
T1 construct: purified NG domains of (Ec)Ffh, (Ec)FtsY and (Bs)Ffh; His6 (C); made in house; host or cells: E. coli BL21 (DE3)
Put plainly: Isothermal titration calorimetry (ITC) of nucleotide binding. Also noted: species or system E. coli. On the procedure: (§1) Ligands and proteins (purified NG domains of (Ec)Ffh, (Ec)FtsY and (Bs)Ffh) were diluted with a buffer containing 20 mM HEPES-Na (pH 7.5), 200 mM NaCl, 20 mM MgCl2 and 20 mM KCl. The NG domains of (Ec)Ffh, (Ec)FtsY and (Bs)Ffh were titrated in the sample-cell at a nominal concentration of 25 µM each. The nucleotides GDP, GTP, ppGpp and pppGpp (Jena Bioscience, Germany) were placed in the syringe and their concentrations were predetermined by absorbance at 252 nm to saturate the protein samples during the titrations. All the measurements were performed at 25 °C with the instrument MicroCal PEAQ-ITC (©Malvern Panalytical) with a method consisting of 13 injections (first 0.4 µL, and the rest 3 µL each) and 150 s of spacing. The raw data (see source) were processed with the MicroCal PEAQ-ITC Analysis Software (©Malvern Panalytical) using the “one set of sites” models.
(ITC needs no label: the signal is the heat of the interaction.)

In assay [2] the target is GTPase RbgA. On the set-up: method as in PMID 30366986. Particulars: read-out: inhibitor constant Ki; cited from earlier work.
The target in assay [3] is T2, Ffh-NG/FtsY-NG complex (Escherichia coli, UniProt P0AGD7+P10121, DEL297-453).
T2 construct: purified NG domains of (Ec)FtsY and (Ec)Ffh were diluted; His6 (C); made in house; host or cells: E. coli BL21 (DE3)
T2 sequence (P0AGD7 1-296, stated change not applied): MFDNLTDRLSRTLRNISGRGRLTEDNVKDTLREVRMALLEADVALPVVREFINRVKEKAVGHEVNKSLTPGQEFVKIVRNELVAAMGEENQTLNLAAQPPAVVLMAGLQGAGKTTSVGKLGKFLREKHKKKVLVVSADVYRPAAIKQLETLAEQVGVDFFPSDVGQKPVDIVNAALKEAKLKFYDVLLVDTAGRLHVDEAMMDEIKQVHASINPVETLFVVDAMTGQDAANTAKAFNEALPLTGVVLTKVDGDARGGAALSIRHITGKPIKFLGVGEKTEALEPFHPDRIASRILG
T2 sequence (P10121 197-497, stated change not applied): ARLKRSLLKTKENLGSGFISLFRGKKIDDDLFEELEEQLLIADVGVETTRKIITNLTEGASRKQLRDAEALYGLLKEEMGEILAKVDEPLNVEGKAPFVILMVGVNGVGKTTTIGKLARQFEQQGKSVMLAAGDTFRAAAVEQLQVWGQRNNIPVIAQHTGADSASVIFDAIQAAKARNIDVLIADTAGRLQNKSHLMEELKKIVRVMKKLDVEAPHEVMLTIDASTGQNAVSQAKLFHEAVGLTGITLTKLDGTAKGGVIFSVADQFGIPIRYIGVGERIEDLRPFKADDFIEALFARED
As to the kind of experiment: Analytical size-exclusion chromatography of GMPPNP-dependent Ffh/FtsY complex formation. Type of assay: biochemical, E. coli. Particulars: 0.25, 0.5 or 1 mM GMPPNP. On the procedure: For the analytical SEC, purified NG domains of (Ec)FtsY and (Ec)Ffh were diluted in a buffer containing 20 mM HEPES (pH 7.5), 200 mM NaCl, 20 mM MgCl2 and 20 mM KCl to a final concentration of 100 µM (Fig. 3g) and 50 µM (Fig. 3h, i) each. Indicated amounts of nucleotides were added simultaneously, and the solution was incubated for 30 min at room temperature. 100 µL were then injected at 4 °C on to a pre-equilibrated S200 300/10 GL analytical size-exclusion column (GE Healthcare, München, Germany) on an Äkta system (UNICORN 7.6; Cytiva). Data has been plotted using GraphPad Prism (GraphPad Prism Corp. San Diego).

Assay [4] concerns the target T3, SRP/FtsY (Escherichia coli, UniProt P0AGD7+P10121).
T3 construct: (Ec)Ffh (full-length) was concentrated on a 10 kDa centrifugal filter; (Ec)FtsY (full-length) was re-buffered in HT buffer; His-tag; made in house; host or cells: E. coli
As to the kind of experiment: Floatation analysis of co-translational membrane targeting of RNCs to SecYEG-proteoliposomes. Type of assay: biochemical, E. coli. Particulars: 50 µM final concentration, 10 µM GTP. On the procedure: For in vitro synthesizing FtsQ- and LepB-RNCs, the T7-dependent expression vectors pKSM-FtsQ and pKSM-LepB were used[37],[79]. In brief, the first 102 amino acids of LepB, and the first 120 amino acids of FtsQ were fused to the SecM stalling sequence and cloned into the pET19b vector. In vitro synthesis was performed in a coupled transcription/translation system as described for YohP. After in vitro synthesis, the RNCs were incubated with INVs (1 µL), liposomes (2 µL), or SecYEG-proteoliposomes (2 µL; 100 ng SecYEG µL^−1) in floatation buffer (50 mM triethanolamine acetate, pH 8.0; 10 µM GTP, 10 mM magnesium acetate, 70 mM potassium acetate; 250 mM sucrose and 1 mM DTT) for 15 min at 25 °C. When indicated, SRP/FtsY (20 ng µL^−1 each) and ppGpp or pppGpp (50 µM final concentration) was present during incubation. Membrane binding of RNCs was assayed by floatation analyses. The reaction mixture was adjusted to 1.6 M sucrose (final volume 100 µL) and overlaid with 200 µL of 1.25 M sucrose and 100 µL 0.25 M sucrose, each prepared in floatation buffer. Following centrifugation in a TLA 100.2 rotor (Beckmann-Coulter) at […] for 90 min, the upper 200 µL of the gradient, containing the membrane fraction (MF) were withdrawn and precipitated with 10% (w/v) TCA (final concentration). The pelleted (non-bound soluble fraction, SF) RNCs were resuspended in the remaining 200 µL of the gradient and TCA precipitated. Samples were subsequently analyzed by 15% SDS-PAGE and autoradiography. RNC binding to membranes was quantified by using the ImageQuant (GE Healthcare, München, Germany) software. The experiments were performed at least three times as independent experiments and representative images are shown. Mean values and SEM values were determined by using either Excel (Microsoft Corp.) or GraphPad Prism (GraphPad Prism Corp. San Diego).

Assay [5] concerns the target T4, (Ec)FtsY-NG (Escherichia coli, UniProt P10121).
T4 construct: purified NG domains of (Ec)Ffh, (Ec)FtsY and (Bs)Ffh; His6 (C); made in house; host or cells: E. coli BL21 (DE3)
Put plainly: Isothermal titration calorimetry (ITC) of nucleotide binding. On the set-up: species or system E. coli. Particulars: NG domain, 25 °C, one set of sites model. The method, then:
as §1

In assay [6] the target is T5, (Bs)Ffh-NG (Bacillus subtilis, UniProt P37105).
T5 construct: purified NG domains of (Ec)Ffh, (Ec)FtsY and (Bs)Ffh; His6 (N); made in house; host or cells: E. coli Rosetta pLysS
T5 sequence (P37105 1-297 limits assumed): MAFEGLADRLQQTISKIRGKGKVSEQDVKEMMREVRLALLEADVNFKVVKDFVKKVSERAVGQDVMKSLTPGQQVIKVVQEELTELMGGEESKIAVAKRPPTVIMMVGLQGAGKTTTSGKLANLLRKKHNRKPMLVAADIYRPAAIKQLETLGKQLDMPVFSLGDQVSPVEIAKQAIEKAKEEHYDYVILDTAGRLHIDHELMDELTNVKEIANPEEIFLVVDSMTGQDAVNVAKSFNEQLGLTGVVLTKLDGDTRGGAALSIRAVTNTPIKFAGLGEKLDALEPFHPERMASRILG
The assay is described as above. The note with it: NG domain, 25 °C, one set of sites model. On the set-up: species or system B. subtilis. The method, then: as §1

Where [7] appears, read: (p)ppGpp concentrations exceeding those of GMPPNP by two-fold.
[8] abbreviates: at equal (p)ppGpp/GMPPNP ratios.

Structures are written as SMILES.

T3 sequence (P0AGD7 whole entry): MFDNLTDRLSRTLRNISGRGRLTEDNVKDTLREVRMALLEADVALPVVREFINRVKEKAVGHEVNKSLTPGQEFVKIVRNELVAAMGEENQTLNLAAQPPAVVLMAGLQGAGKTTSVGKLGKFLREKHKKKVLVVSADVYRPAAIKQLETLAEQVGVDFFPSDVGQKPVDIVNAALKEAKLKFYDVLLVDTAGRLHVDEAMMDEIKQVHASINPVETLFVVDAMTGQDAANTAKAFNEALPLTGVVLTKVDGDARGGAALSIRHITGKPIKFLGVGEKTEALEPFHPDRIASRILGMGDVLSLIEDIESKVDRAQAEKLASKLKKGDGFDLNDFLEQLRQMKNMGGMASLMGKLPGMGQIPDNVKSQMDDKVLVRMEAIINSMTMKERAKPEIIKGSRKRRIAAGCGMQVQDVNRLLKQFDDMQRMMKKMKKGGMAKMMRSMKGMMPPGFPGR
T3 sequence (P10121 whole entry): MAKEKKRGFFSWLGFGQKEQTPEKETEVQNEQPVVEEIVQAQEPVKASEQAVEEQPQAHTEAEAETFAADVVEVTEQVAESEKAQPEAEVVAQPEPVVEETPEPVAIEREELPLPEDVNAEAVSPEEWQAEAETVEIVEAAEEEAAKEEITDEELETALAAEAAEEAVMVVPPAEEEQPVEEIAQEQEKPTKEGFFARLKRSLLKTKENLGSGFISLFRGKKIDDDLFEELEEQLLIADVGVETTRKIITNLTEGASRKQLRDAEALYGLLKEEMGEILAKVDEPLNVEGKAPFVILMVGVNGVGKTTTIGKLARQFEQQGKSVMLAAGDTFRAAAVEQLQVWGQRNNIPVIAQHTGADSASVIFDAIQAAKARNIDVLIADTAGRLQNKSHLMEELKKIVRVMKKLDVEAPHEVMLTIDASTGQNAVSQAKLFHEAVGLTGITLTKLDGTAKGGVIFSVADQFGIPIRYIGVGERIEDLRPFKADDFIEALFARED
T1 sequence (P0AGD7 1-296): as the sequence (P0AGD7 1-296, stated change not applied) above
T4 sequence (P10121 197-497): as the sequence (P10121 197-497, stated change not applied) above

Take `Nc1nc2c(ncn2[C@@H]2O[C@H](COP(=O)(O)OP(=O)(O)OP(=O)(O)O)[C@@H](OP(=O)(O)OP(=O)(O)O)[C@H]2O)c(=O)[nH]1` [pppGpp]: in assay [1], the affinity, expressed as Kd, was 13.9 ± 7.1 µM. In addition, in assay [2], the inhibition constant (Ki) (as a rule, the equilibrium dissociation constant of an inhibitor or competing ligand from its target) was 500 µM. In addition, the Ffh/FtsY complex formation entry in assay [3] (setting [7]) was “roughly abolished”. Further, the Ffh/FtsY complex formation result in assay [3] (setting [8]) is given as “half-inhibited”. In addition, in assay [4], the “membrane targeting of FtsQ-RNCs” value is reported as “completely blocked” and the “membrane targeting of LepB-RNCs” value is recorded as “completely blocked”.

With `Nc1nc2c(ncn2[C@@H]2O[C@H](COP(=O)(O)OP(=O)(O)O)[C@@H](OP(=O)(O)OP(=O)(O)O)[C@H]2O)c(=O)[nH]1` [ppGpp], the results for the Kd in assay [5], in assay [1] and in assay [6] were 21.7 ± 5.4 µM, 7.9 ± 1.9 µM and 4.8 ± 1.8 µM, respectively. The Ki in assay [2] is 300 µM. The values for the Ffh/FtsY complex formation entry in assay [3] (setting [7]) and in assay [3] (setting [8]) were “roughly abolished” and “half-inhibited”, respectively. In assay [4], the “membrane targeting of FtsQ-RNCs” value was “completely blocked”. Also, in assay [4], the “membrane targeting of LepB-RNCs” value is “completely blocked”.
